Numbered stars: 1 amine (or outer) side, 2 acyl side, 3 side chain; on linkers, the order of the positions; unused ones are H or OH. Square brackets hold non-standard residues; d marks the D form. Peptide text beside a SMILES is read from it. * marks the point of attachment. Heptanoyl(3-oxo-2,2,4S,6-Me) = CC(C)C[C@H](C)C(=O)C(C)(C)C(=O)*; NH((S)-1-NMe2-3-Me-but-2-yl) = CC(C)[C@@H](CN(C)C)N*; Ile(3R-OH) = CC[C@@](C)(O)[C@H](N)C(=O)O; dVal(3-OH) = CC(C)(O)[C@@H](N)C(=O)O; d(aIle) = CC[C@H](C)[C@@H](N)C(=O)O; Val(3-OH) = CC(C)(O)[C@H](N)C(=O)O; X1 = CCC(CC)=C(N[*:1])C(=O)[*:2]; ΔVal = CC(C)=C(N)C(=O)O
Columns and labels:
[1] = test system: A375; assay: cells; conditions: read-out: Aver IC50, A375; A375 (Malignant Melanoma); MTS, 72 hours, 37 °C, 5% CO2, 384-well; n>2 independent studies (in duplicate)
Protocol: (§1) The antiproliferative activity profiles of 1a, its full-length analogs 2a and 2b, and its partial structures (23, 24, 26, and 30) were determined by in vitro screening in 72 hours MTS cell proliferation assays against a panel of 18 different human cancer cell lines. […] The three peptides were also evaluated for their antiproliferative activity against the lung fibroblast MRC5 cell line.
(§2) Cells (40 µ L) are added into individual wells of a 384-well black/clear bottom plate on day zero at concentrations enabling continuous log growth over the course of the assay. On day one, compounds (or DMSO) are transferred using an ATS-liquid handler (100 nL per well) to individual wells containing cells and the cells are treated for 72 hours (37 °C, 5% CO 2) prior to measuring proliferation using MTS reagent following manufacturer’s instructions. Net OD values are determined by subtracting the average OD values of cells (measured on day 1, T = 0) from average total OD value of cells (measured on day 4, T = 72h). IC 50 values are calculated using proprietary software (IC 50 values normalized against all compounds). Results represent n>2 independent studies (in duplicate).
(§3) Table S1. Antiproliferative Data of Compounds 1a, 2a, 2b, 23, 24, 26, and 30.
(§4) Table S2. Human Cell Line Descriptions.
(§5) Human Cell Line* Description
(§6) *All cells were obtained from ATCC and are authenticated

[2] = test system: A549; assay: cells; conditions: read-out: Aver IC50, A549; A549 (Lung - NSCLC); MTS, 72 hours, 37 °C, 5% CO2, 384-well; n>2 independent studies (in duplicate)
Protocol: as §1, §2, §3, §4, §5, §6

[3] = test system: BXPC3; assay: cells; conditions: read-out: Aver IC50, BXPC3; BXPC3 (Pancreatic - Adenocarcinoma); MTS, 72 hours, 37 °C, 5% CO2, 384-well; n>2 independent studies (in duplicate)
Protocol: as §1, §2, §3, §4, §5, §6

[4] = test system: CALU6; assay: cells; conditions: read-out: Aver IC50, CALU6; CALU6 (Lung - Adenocarcinoma); MTS, 72 hours, 37 °C, 5% CO2, 384-well; n>2 independent studies (in duplicate)
Protocol: as §1, §2, §3, §4, §5, §6

[5] = test system: COLO678; assay: cells; conditions: read-out: Aver IC50, COLO678; COLO678 (Colon Carcinoma); MTS, 72 hours, 37 °C, 5% CO2, 384-well; n>2 independent studies (in duplicate)
Protocol: as §1, §2, §3, §4, §5, §6

[6] = test system: HCT116; assay: cells; conditions: read-out: Aver IC50, HCT116; HCT116 (Colon Carcinoma); MTS, 72 hours, 37 °C, 5% CO2, 384-well; n>2 independent studies (in duplicate)
Protocol: as §1, §2, §3, §4, §5, §6

[7] = test system: HL60; assay: cells; conditions: read-out: Aver IC50, HL60; HL60 (Leukema - Promyelocytic); MTS, 72 hours, 37 °C, 5% CO2, 384-well; n>2 independent studies (in duplicate)
Protocol: as §1, §2, §3, §4, §5, §6

[8] = test system: HT29; assay: cells; conditions: read-out: Aver IC50, HT29; HT29 (Colon Carcinoma); MTS, 72 hours, 37 °C, 5% CO2, 384-well; n>2 independent studies (in duplicate)
Protocol: as §1, §2, §3, §4, §5, §6

[9] = test system: JURKAT; assay: cells; conditions: read-out: Aver IC50, JURKAT; JURKAT (acute T-cell leukemia); MTS, 72 hours, 37 °C, 5% CO2, 384-well; n>2 independent studies (in duplicate)
Protocol: as §1, §2, §3, §4, §5, §6

[10] = test system: MV411; assay: cells; conditions: read-out: Aver IC50, MV411; MV411 (Acute Myeloid Leukemia); MTS, 72 hours, 37 °C, 5% CO2, 384-well; n>2 independent studies (in duplicate)
Protocol: as §1, §2, §3, §4, §5, §6

[11] = test system: NCIH1048; assay: cells; conditions: read-out: Aver IC50, NCIH1048; NCIH1048 (Lung - SCLC); MTS, 72 hours, 37 °C, 5% CO2, 384-well; n>2 independent studies (in duplicate)
Protocol: as §1, §2, §3, §4, §5, §6

[12] = test system: OVCAR3; assay: cells; conditions: read-out: Aver IC50, OVCAR3; OVCAR3 (Ovary - Adenocarcinoma); MTS, 72 hours, 37 °C, 5% CO2, 384-well; n>2 independent studies (in duplicate)
Protocol: as §1, §2, §3, §4, §5, §6

[13] = test system: PANC1005; assay: cells; conditions: read-out: Aver IC50, PANC1005; PANC1005 (Pancreatic - Adenocarcinoma); MTS, 72 hours, 37 °C, 5% CO2, 384-well; n>2 independent studies (in duplicate)
Protocol: as §1, §2, §3, §4, §5, §6

[14] = test system: RAMOS; assay: cells; conditions: read-out: Aver IC50, RAMOS; RAMOS (Burkitt's lymphoma); MTS, 72 hours, 37 °C, 5% CO2, 384-well; n>2 independent studies (in duplicate)
Protocol: as §1, §2, §3, §4, §5, §6

[15] = test system: SNUC1; assay: cells; conditions: read-out: Aver IC50, SNUC1; SNUC1 (Colon Carcinoma); MTS, 72 hours, 37 °C, 5% CO2, 384-well; n>2 independent studies (in duplicate)
Protocol: as §1, §2, §3, §4, §5, §6

[16] = test system: THP1; assay: cells; conditions: read-out: Aver IC50, THP1; THP1 (Acute Monocytic Leukemia); MTS, 72 hours, 37 °C, 5% CO2, 384-well; n>2 independent studies (in duplicate)
Protocol: as §1, §2, §3, §4, §5, §6

[17] = test system: U937; assay: cells; conditions: read-out: Aver IC50, U937; U937 (Pro-monocytic, Human Myeloid Leukemia); MTS, 72 hours, 37 °C, 5% CO2, 384-well; n>2 independent studies (in duplicate)
Protocol: as §1, §2, §3, §4, §5, §6

[18] = test system: lung fibroblast MRC5 cell line; assay: cells; conditions: read-out: Aver IC50, MRC5; MRC5 (Lung Fibroblast, noncancerous); MTS, 72 hours, 37 °C, 5% CO2, 384-well; n>2 independent studies (in duplicate)
Protocol: as §1, §2, §3, §4, §5, §6

[19] = test system: MCF7; conditions: MCF7 (Breast Carcinoma), MTS, 72 hours, 37 °C, 5% CO2, 384-well, n>2 independent studies (in duplicate); for IC50: read-out: Aver IC50, MCF7
Protocol: as §1, §2, §3, §4, §5, §6

[20] = test system: panel of 18 different human cancer cell lines; assay: 72 h MTS cell proliferation assays, panel of cancer cell lines; type: cell-based; conditions: against most of the cell lines, ca.
Protocol: as §1, §2, §3, §4, §5, §6

[21] = test system: P388 murine leukemia cells; conditions: cited from earlier work
Description: The linear peptide yaku'amide A (1a, Fig. 1) was isolated by Matsunaga and co-workers from the deep-sea sponge Ceratopsion sp.[1] It contains several unusual β-tert-hydroxy amino acids (β-OHAAs) and tetrasubstituted dehydroamino acids (ΔAAs).

Molecule	IC50 [1] [nM]	IC50 [2] [nM]	IC50 [3] [nM]	IC50 [4] [nM]	IC50 [5] [nM]	IC50 [6] [nM]	IC50 [7] [nM]	IC50 [8] [nM]	IC50 [9] [nM]	IC50 [10] [nM]	IC50 [11] [nM]	IC50 [12] [nM]	IC50 [13] [nM]	IC50 [14] [nM]	IC50 [15] [nM]	IC50 [16] [nM]	IC50 [17] [nM]	IC50 [18] [nM]	IC50 [19] [nM]	other results
CCC(CC)=C(NC(=O)[C@@H](NC(=O)C(C)(C)C(=O)[C@@H](C)CC(C)C)[C@](C)(O)CC)C(=O)NCC(=O)NC(C(=O)N[C@@H](C(=O)N[C@@H](C(=O)N[C@@H](C(=O)N[C@H](C(=O)NC(C(=O)N[C@H](C)C(=O)N[C@@H](C(=O)N[C@H](C(=O)NC(C(=O)N[C@H](CN(C)C)C(C)C)=C(C)C)C(C)C)C(C)C)=C(C)C)C(C)(C)O)C(C)(C)O)[C@@H](C)CC)C(C)C)=C(C)C [Compound 2a] ({Heptanoyl(3-oxo-2,2,4S,6-Me)}-[Ile(3R-OH)][X1]G[ΔVal][dV][d(aIle)][dVal(3-OH)][Val(3-OH)][ΔVal][dA][dV]V[ΔVal]-{NH((S)-1-NMe2-3-Me-but-2-yl)})	1510	86.5	3900	578	2010	1130	370	2270	4210	20.8	1310	81.4	1970	362	34.4	9190	435	5470	13000	Increased potency compared to 2b [20]: 2–4 fold
yaku'amide A [Compound 1a, reference compound]	2140	108	3820	2220	2690	1740	578	2890	4950	119	3110	227	2830	975	129	9290	1210	14500	125	Aver IC50, MCF7 [19]: potent; IC50, growth inhibition of P388 murine leukemia cells [21]: 0.014 µg/mL
CCC(CC)=C(NC(=O)CNC(=O)C(NC(=O)[C@@H](NC(=O)C(C)(C)C(=O)[C@@H](C)CC(C)C)[C@](C)(O)CC)=C(C)C)C(=O)N[C@@H](C(=O)NCCN(C)C)C(C)C [Compound 26]	> 25000	> 25000	> 25000	> 25000	> 25000	> 25000	> 25000	> 25000	> 25000	> 25000	> 25000	> 25000	> 25000	> 25000	> 25000	> 25000	> 25000	> 25000	6340	–

— paper PMC8848768, “Synthesis and evaluation of potent yaku'amide A analogs” (Chemical Science, 2022)
